Experimental data from patent US6350755B1, “Inhibitors of prenyl-protein transferase” (Merck & Co., Inc., priority 2000, dated 2002).

Biological target: T1, human FPTase (Homo sapiens, UniProt P49354+P49356)
T1 construct: made in house
Assay: In vitro inhibition of Ras farnesyl transferase
Type: biochemical
Details: recombinant FPTase; 650 nM Ras-CVLS, 100 nM farnesyl diphosphate; 30° C.; read-out: IC50 for inhibitory activity against human FPTase
Protocol: Transferase Assays. Isoprenyl-protein transferase activity assays are carried out at 30° C. unless noted otherwise. A typical reaction contains (in a final volume of 50 μL): [^3H]farnesyl diphosphate, Ras protein, 50 mM HEPES, pH 7.5, 5 mM MgCl2, 5 mM dithiothreitol, 10 μM ZnCl2, 0.1% polyethyleneglycol (PEG) (15,000-20,000 mw) and isoprenyl-protein transferase. The FPTase employed in the assay is prepared by recombinant expression as described in Omer, C. A., Kral, A. M., Diehl, R. E., Prendergast, G. C., Powers, S., Allen, C. M., Gibbs, J. B. and Kohl, N. E. (1993) Biochemistry 32:5167-5176. After thermally pre-equilibrating the assay mixture in the absence of enzyme, reactions are initiated by the addition of isoprenyl-protein transferase and stopped at timed intervals (typically 15 min) by the addition of 1 M HCl in ethanol (1 mL). The quenched reactions are allowed to stand for 15 m (to complete the precipitation process). After adding 2 mL of 100% ethanol, the reactions are vacuum-filtered through Whatman GF/C filters. Filters are washed four times with 2 mL aliquots of 100% ethanol, mixed with scintillation fluid (10 mL) and then counted in a Beckman LS3801 scintillation counter.
For inhibition studies, assays are run as described above, except inhibitors are prepared as concentrated solutions in 100% dimethyl sulfoxide and then diluted 20-fold into the enzyme assay mixture. […]

IC50: ≤ 5 µM
SMILES: Cn1cnc2c1C1c3ccc(C#N)c(c3)Oc3cccc(c3)S(=O)(=O)NCCC(=O)N1CC2 (racemic) [Example 1]
